Data from patent publication US12503453B2, “USP7 inhibition” (Dana-Farber Cancer Institute, Inc., priority 2018, dated 2025).
Where two headings read alike, the source gives them in different places.

What was measured:
[1] = test system: MDM2-p53 signaling axis in MCF7 cells; test: Whole cell lysate Western blots of MCF7 cells (MDM2-p53 signaling axis); type: cell-based; details: wild-type TP53
USP7 catalytic domain = USP7 catalytic domain (Homo sapiens (Human), UniProt Q93009); test: MS labeling of purified USP7 catalytic domain (intact MS, CE-MS); type: binding
USP7 catalytic domain, sequence (Q93009 208-560): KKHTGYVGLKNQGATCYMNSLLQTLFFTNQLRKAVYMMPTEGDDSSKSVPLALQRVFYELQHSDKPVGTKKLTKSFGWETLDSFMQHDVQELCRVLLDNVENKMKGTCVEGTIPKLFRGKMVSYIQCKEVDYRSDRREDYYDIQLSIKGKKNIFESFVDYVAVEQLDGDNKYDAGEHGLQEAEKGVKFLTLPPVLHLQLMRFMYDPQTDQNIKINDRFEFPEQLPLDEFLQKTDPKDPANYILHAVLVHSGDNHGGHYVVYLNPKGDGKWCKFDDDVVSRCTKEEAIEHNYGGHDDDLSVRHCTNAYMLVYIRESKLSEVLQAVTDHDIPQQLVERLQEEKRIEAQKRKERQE
Description: Purified USP7 catalytic domain was diluted to 20 μM in 10 μL labeling buffer (20 mM HEPES pH 7.5, 150 mM NaCl, 1 mM TCEP) and incubated for the indicated times with 50 μM (2.5×) compound. After incubation, samples were flash frozen in liquid nitrogen and stored at −80° C. until analysis.
Intact mass analysis was performed by injecting 5 μg USP7 catalytic domain onto a self-packed reversed phase column ( 1/32″ O.D.×500 um I.D., 5 cm of POROS 10R2 resin). After desalting, protein was eluted with an HPLC gradient (0-100% B in 4 minutes, A=0.2M acetic acid in water, B=0.2 M acetic acid in acetonitrile, flow rate ˜30 μL/min) into an LTQ ion trap mass spectrometer (ThermoFisher Scientific, San Jose, CA). Mass spectra were deconvoluted using MagTran1.03b2 software. Zhang, Z. & Marshall, A. G. A universal algorithm for fast and automated charge state deconvolution of electrospray mass-to-charge ratio spectra. J. Am. Soc. Mass Spectrom. 9, 225-233 (1998).
To identify sites of covalent modification, treated protein was reduced (10 mM dithiothreitol), alkylated (22.5 mM iodoacetamide), and digested with trypsin overnight at 37° C. Peptides were desalted using SP3 (Hughes, C. S. et al. Ultrasensitive proteome analysis using paramagnetic bead technology. Mol. Syst. Biol. 10, 757-757 (2014)), dried by vacuum centrifugation, and reconstituted in 1% formic acid/50% acetonitrile with 100 mM ammonium acetate. Peptides were then analyzed by CE-MS using a ZipChip CE system and autosampler (908 Devices, Boston, MA) interfaced to a QExactive HF mass spectrometer (ThermoFisher Scientific, San Jose, CA). Peptide solution was loaded for 30 seconds, and the mass spectrometer was operated in data dependent mode and subjected the 5 most abundant ions in each MS scan (60 k resolution, 3E6 target, lock mass enabled) to MS/MS (15 k resolution, 1E5 target, 100 ms max inject time). Dynamic exclusion was enabled with a repeat count of 1 and an exclusion time of 6 seconds. […]

[2] = test system: 41 purified recombinant DUBs; test: In vitro DUB profiling, panel of 41 recombinant DUBs (Ub-Rho); type: biochemical; details: 1 μM, 15 minutes pre-incubation
Description: Compounds were screened using the Ubiquigent Drug Profiler SPT system. Each of 41 purified DUBs was incubated with compound for 15 minutes, then ubiquitin rhodamine 110 (Ub-Rho) was added and percent inhibition determined based on fluorescence relative to a DMSO control.

A673 cells = test: Cell proliferation (CellTiter-Glo), A673; type: cell-based; details: TP53-mutant, 3 days
Description: (§1) Cells were plated in 384-well culture-treated plates and allowed to settle overnight. After drug treatment and appropriate incubation time, cell viability was assessed using the CellTiter-Glo Luminescent Cell Viability Assay (Promega). Luminescence was read on a Fluostar Omega Reader (BMG Labtech).

TC138 cells = test: Cell proliferation (CellTiter-Glo), TC138; type: cell-based; details: TP53 wild-type, 3 days
Description: as §1

[3] = test system: TC32 cells expressing sgTP53; test: Cell proliferation of TC32 cells with TP53 knockout; type: cell-based; details: 3 days
Description: as §1
Lentivirus was produced by transfecting HEK-293T cells with the pLentiV2 vector (Addgene plasmid #52961) and the packaging plasmids pCMV8.9 and pCMV-VSVG according to the FuGENE 6 (Roche) protocol. For lentiviral transduction, Ewing sarcoma cells were incubated with 2 mL of virus and 8 μg/mL of polybrene (Sigma-Aldrich). Cells were selected in puromycin (Sigma-Aldrich) 48 hours after infection for single knockout experiments.
sgRNAs were designed using the Broad Institute's sgRNA designer tool. The following sequences were used as control or to target the respective genes: […]

USP7 = USP7 (Homo sapiens (Human), UniProt Q93009); test: Competitive ABPP with HA-Ub-VS in MCF7 crude cell extracts; type: binding; details: read-out: IC50 of inhibition of HA-Ub-VS labeling
USP7, sequence (Q93009 whole entry): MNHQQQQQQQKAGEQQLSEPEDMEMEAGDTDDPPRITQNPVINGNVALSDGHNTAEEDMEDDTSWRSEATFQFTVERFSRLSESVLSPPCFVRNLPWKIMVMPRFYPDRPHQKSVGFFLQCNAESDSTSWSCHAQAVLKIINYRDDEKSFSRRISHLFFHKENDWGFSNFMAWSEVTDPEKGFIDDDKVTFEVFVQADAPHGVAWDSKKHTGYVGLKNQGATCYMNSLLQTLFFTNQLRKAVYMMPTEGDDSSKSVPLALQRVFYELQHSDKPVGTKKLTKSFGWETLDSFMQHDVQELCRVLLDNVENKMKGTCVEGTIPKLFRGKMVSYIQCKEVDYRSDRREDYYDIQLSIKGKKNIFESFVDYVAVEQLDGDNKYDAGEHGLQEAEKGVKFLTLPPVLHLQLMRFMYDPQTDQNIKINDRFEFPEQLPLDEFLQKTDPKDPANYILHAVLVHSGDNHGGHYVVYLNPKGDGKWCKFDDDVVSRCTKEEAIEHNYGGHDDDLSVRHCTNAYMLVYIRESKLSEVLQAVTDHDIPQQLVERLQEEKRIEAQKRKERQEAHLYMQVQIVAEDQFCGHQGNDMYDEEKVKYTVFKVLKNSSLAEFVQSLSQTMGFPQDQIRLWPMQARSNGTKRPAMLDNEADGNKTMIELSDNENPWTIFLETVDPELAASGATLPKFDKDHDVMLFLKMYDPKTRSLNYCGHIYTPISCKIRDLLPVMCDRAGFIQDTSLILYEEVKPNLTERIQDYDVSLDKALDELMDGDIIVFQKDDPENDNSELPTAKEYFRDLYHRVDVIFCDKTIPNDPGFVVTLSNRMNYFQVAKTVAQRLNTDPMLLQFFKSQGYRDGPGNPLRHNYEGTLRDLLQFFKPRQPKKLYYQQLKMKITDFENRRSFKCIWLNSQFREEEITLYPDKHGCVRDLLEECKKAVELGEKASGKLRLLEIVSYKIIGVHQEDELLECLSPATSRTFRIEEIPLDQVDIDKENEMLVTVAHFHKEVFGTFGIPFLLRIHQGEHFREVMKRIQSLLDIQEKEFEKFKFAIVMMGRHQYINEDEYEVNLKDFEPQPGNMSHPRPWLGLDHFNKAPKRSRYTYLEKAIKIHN
Description: HA-Ub-VS experiments were performed as previously described in Lamberto, I. et al. Structure-Guided Development of a Potent and […] Selective Non-covalent Active-Site Inhibitor of USP7. Cell Chem. Biol. 24, 1490-1500 (2017). Briefly, target engagement lysis buffer (50 mM Tris pH 8.0, 150 mM NaCl, 5 mM MgCl2, 0.5 mM EDTA, 0.5% NP-40, 10% glycerol, 1 mM TCEP, protease and phosphatase inhibitors) was added to cell pellets on ice. Lysate was cleared by centrifugation and diluted to 1.67 mg/mL. Where indicated, 30 μL lysate was then incubated with inhibitors or DMSO for the indicated timepoints. 1 μM HA-Ub-VS was then added to the lysate and incubated at RT for the indicated time points. Labeling reactions were quenched with 4×LDS sample buffer (Thermo Fisher B0007) supplemented with 10% BME, vortexed vigorously, and heated to 95° C. for 5 minutes. Samples were resolved by SDS-PAGE and analyzed by Western blot with the indicated antibodies.

[4] = test system: Ewing sarcoma cell lines, TP53 WT and mutant; test: Cell proliferation (CellTiter-Glo), panel of Ewing sarcoma cell lines; type: cell-based; details: WT and TP53-KO Ewing Sarcoma cells
Description: as §1

CN1CCN(CCC(=O)Nc2ccc3c(=O)n(CC4(O)CCN(C(=O)[C@@H](CCCNC(=O)c5ccc6c(Cl)c7c(nc6c5)CCCC7)Cc5ccccc5)CC4)cnc3c2)CC1 [compound 6, (S)—N-(4-benzyl-5-(4-hydroxy-4-((7-(3-(4-methylpiperazin-1-yl)propanamido)-4-oxoquinazolin-3(4H)-yl)methyl)piperidin-1-yl)-5-oxopentyl)-9-chloro-5,6,7,8-tetrahydroacridine-3-carboxamide]
MDM2 protein level [1]: induced rapid degradation of MDM2 within 2 hours | p53 and p21 protein levels [1]: increases in p53 and downstream p21 protein levels | site of covalent modification (MS/MS) (USP7 catalytic domain): binding to the catalytic residue, C223 | labeling of USP7 catalytic domain by MS (USP7 catalytic domain; 15 minutes incubation): Quantitative labeling of USP7 | activity against other DUBs of the panel [2]: did not exhibit significant activity against any other DUBs | inhibition of USP7 enzymatic activity [2]: completely inhibited USP7 enzymatic activity | growth inhibition (A673 cells): neither TP53-mutant A673 or TC71 was substantially inhibited | growth inhibition (TC138 cells): potently inhibited | cytotoxic effect after TP53 knockout [3]: rescued by TP53 knockout | IC50 (USP7; 30 min preincubation): 85 nM | IC50 (USP7; 4 hr preincubation): 8 nM | TP53 dependence of cell killing [4]: highly TP53-dependent cell killing
